Reference: patent US20110263454A1, “Methods of Identifying Functional Characteristics of Promoters, Transcription Modifying Proteins and Transcription Modulating Agents” (Salk Institute for Biological Studies, priority 2008, published 2011)

B1: RORa: RAR-related Orphan Receptor α (NR1F1), cDNA driver (protein, UniProt P35398 1-523, looked up)
Nuclear receptor ROR-alpha: MESAPAAPDPAASEPGSSGADAAAGSRETPLNQESARKSEPPAPVRRQSYSSTSRGISVTKKTHTSQIEIIPCKICGDKSSGIHYGVITCEGCKGFFRRSQQSNATYSCPRQKNCLIDRTSRNRCQHCRLQKCLAVGMSRDAVKFGRMSKKQRDSLYAEVQKHRMQQQQRDHQQQPGEAEPLTPTYNISANGLTELHDDLSNYIDGHTPEGSKADSAVSSFYLDIQPSPDQSGLDINGIKPEPICDYTPASGFFPYCSFTNGETSPTVSMAELEHLAQNISKSHLETCQYLREELQQITWQTFLQEEIENYQNKQREVMWQLCAIKITEAIQYVVEFAKRIDGFMELCQNDQIVLLKAGSLEVVFIRMCRAFDSQNNTVYFDGKYASPDVFKSLGCEDFISFVFEFGKSLCSMHLTEDEIALFSAFVLMSADRSWLQEKVKIEKLQQKIQLALQHVLQKNHREDGILTKLICKVSTLRALCGRHTEKLMAFKAIYPDIVRLHFPPLYKELFTSEFEPAMQIDG
B2: LXRb: Liver X Receptor β (NR1H2), cDNA driver (protein, UniProt P55055 1-460, looked up)
Oxysterols receptor LXR-beta: MSSPTTSSLDTPLPGNGPPQPGAPSSSPTVKEEGPEPWPGGPDPDVPGTDEASSACSTDWVIPDPEEEPERKRKKGPAPKMLGHELCRVCGDKASGFHYNVLSCEGCKGFFRRSVVRGGARRYACRGGGTCQMDAFMRRKCQQCRLRKCKEAGMREQCVLSEEQIRKKKIRKQQQESQSQSQSPVGPQGSSSSASGPGASPGGSEAGSQGSGEGEGVQLTAAQELMIQQLVAAQLQCNKRSFSDQPKVTPWPLGADPQSRDARQQRFAHFTELAIISVQEIVDFAKQVPGFLQLGREDQIALLKASTIEIMLLETARRYNHETECITFLKDFTYSKDDFHRAGLQVEFINPIFEFSRAMRRLGLDDAEYALLIAINIFSADRPNVQEPGRVEALQQPYVEALLSYTRIKRPQDQLRFPRMLMKLVSLRTLSSVHSEQVFALRLQDKKLPPLLSEIWDVHE
B3: HNF4a: Hepatocyte Nuclear Factor α (NR2A1), cDNA driver (protein, UniProt P41235 1-474, looked up)
Hepatocyte nuclear factor …: MRLSKTLVDMDMADYSAALDPAYTTLEFENVQVLTMGNDTSPSEGTNLNAPNSLGVSALCAICGDRATGKHYGASSCDGCKGFFRRSVRKNHMYSCRFSRQCVVDKDKRNQCRYCRLKKCFRAGMKKEAVQNERDRISTRRSSYEDSSLPSINALLQAEVLSRQITSPVSGINGDIRAKKIASIADVCESMKEQLLVLVEWAKYIPAFCELPLDDQVALLRAHAGEHLLLGATKRSMVFKDVLLLGNDYIVPRHCPELAEMSRVSIRILDELVLPFQELQIDDNEYAYLKAIIFFDPDAKGLSDPGKIKRLRSQVQVSLEDYINDRQYDSRGRFGELLLLLPTLQSITWQMIEQIQFIKLFGMAKIDNLLQEMLLGGSPSDAPHAHHPLHPHLMQEHMGTNVIVANTMPTHLSNGQMCEWPRPRGQAATPETPQPSPPGGSGSEPYKLLPGAVATIVKPLSAIPQPTITKQEVI

Experiments:
Type in all cases: cell-based, mouse
[1] = test system: mGhrelin promoter; test: NHR-promoter luciferase screen, mGhrelin promoter; conditions: for Luc. act., normalized to lacZ / Normalized Luc. act., normalized to control: Table 8, mGhrelin; for Results of assays of transcription factor (+/- ligand) with mGhrelin: Table 6d, luciferase activity relative to control (control = 1.00); for luciferase/LacZ, mGhrelin (selected results): mGhrelin promoter-luciferase, NHR +/- ligand, control = 1.0
Method: (§1) The use, feasibility, and reproducibility of the functional NHR-promoter screen in a 48-well format have been tested validated. Briefly, there were co-expressed 50 ng of each NHR/NHR homodimer or NHR/RXR heterodimer with 100 ng promoter/luciferase construct and 50 ng of LacZ (as a control for transfection efficiency) in CV-1 cells using Fugene HD (Roche) as a transfection reagent (alternatively or additionally, a CMV-YFP construct can be used as a transfection control). Each of the nuclear hormone receptors that were used in these experiments was cloned into a pcDNA3.1 vector and comprised a C-terminally linked V5H6 tag. Twenty-four hours after transfection, appropriate ligands were added, where applicable, (see Table 5 for various ligands and concentrations and after 48 hrs, samples were assayed for luciferase and LacZ activity. To measure for luciferase activity 15 ul of sample was added to 30 ul of luciferase buffer (20 mM tricine, 1.07 mM MgCarbonate, 2.67 mM MgSulfate, 0.1 mM Naz-EDTA, 5 mM DTT, 5 mM ATP, 0.15 mg/ml CoA, 0.5 mM Luciferin), mixed briefly, and run in a Perkin Elmer Victor 5 luminometer. Thus, the functional NHR-promoter screen was used to observe the transcriptional activity of 29 promoters from various physiological pathways including inflammation, lipid and sugar metabolism, cholesterol transport, xenobiotic metabolism, and circadian rhythm.
(§2) The promoters that facilitate transcription of the indicated gene products that were tested using the protocols described herein are listed in the first row of the table. The nuclear hormone receptors and, where applicable, ligands that were assayed for their transcriptional effects on the promoters are listed in the first column of the table. The data represent the luciferase activity of each sample normalized to both the lacZ activity of that sample and to a control, e.g., no NHR or ligand, as customary in the art. As described previously, these normalizations allow the transcriptional activity of each reporter cell to be compared to other samples.
(§3) Tables 7-40 show the transcriptional effects of the hormone receptors, and, where applicable, ligands (orphan receptors are screened without ligand), on each individual promoter. […] The control data of each table are shown in their last rows.

[2] = test system: mDio1 promoter; test: NHR-promoter luciferase screen, mDio1 promoter; conditions: for Luc. act., normalized to lacZ / Normalized Luc. act., normalized to control: Dio1, HR component without or with its ligand; for mDio1 promoter reporter activity: transcription factor +/- ligand, control = 1.00
Method: as §1, §2, §3

[3] = test system: SREBP1c promoter; test: NHR-promoter luciferase screen, SREBP1c promoter; conditions: for Luc. act., normalized to lacZ / Normalized Luc. act., normalized to control: SREBP1c promoter, HR component without or with ligand; for mSREBP1-c promoter reporter activity: transcription factor +/- ligand, control = 1.00
Method: as §1, §2, §3

Molecule	Luc. act., normalized to lacZ [1]	Normalized Luc. act., normalized to control [1]	Results of assays of transcription factor (+/- ligand) with mGhrelin [1]	luciferase/LacZ, mGhrelin (selected results) [1]	Luc. act., normalized to lacZ [2]	Normalized Luc. act., normalized to control [2]	mDio1 promoter reporter activity [2]	Luc. act., normalized to lacZ [3]	Normalized Luc. act., normalized to control [3]	mSREBP1-c promoter reporter activity [3]	regulation of the SREBP1c promoter ([3]; FIG. 2b, in words)
GR: Glucocorticoid Receptor (NR3C1), cDNA driver	14.3	0.3	0.27	0.3	2.5	0.6	0.55	150.3	0.5	0.47	
NR4a1: NR4a1 (NR4A1; NUR77), nuclear hormone receptor cDNA driver	54.5	1.0	1.04	1.0	10.9	2.4	2.45	408.2	1.3	1.27	
AR: Androsterone Receptor (NR3C4), cDNA driver	39.2	0.8	0.75		6.4	1.4	1.43	418.4	1.3	1.30	
PNR: Photoreceptor-specific Nuclear Receptor (NR2E3), cDNA driver	32.4	0.6	0.62		6.4	1.4	1.44	265.7	0.8	0.82	
TLX: Tailless (homolog of drosophila) (NR2E1), cDNA driver	86.6	1.7	1.66		8.4	1.9	1.88	352.4	1.1	1.09	
SF-1: Steroidogenic Factor 1 (NR5A1, SF1), cDNA driver	273.2	5.2	5.23		19.8	4.5	4.45	916.0	2.8	2.84	
PPARa: Peroxisome proliferator activated receptor α (NR1C1), cDNA driver	56.2	1.1	1.07		4.7	1.1	1.06	935.6	2.9	2.90	
ERR1: Estrogen Related Receptor α (NR3B1, ERRa), cDNA driver	81.4	1.6	1.56		6.2	1.4	1.39	316.8	1.0	0.98	
VDR: Vitamin D Receptor (NR1I1), cDNA driver	76.6	1.5	1.47		7.6	1.7	1.71	460.1	1.4	1.43	
RXRa: Retinoic X Receptor α (NR2B1), cDNA driver	57.4	1.1	1.10		5.5	1.2	1.24	521.9	1.6	1.62	
B1	46.6	0.9	0.89		2.1	0.5	0.47	410.8	1.3	1.28	
B2	46.7	0.9	0.89		9.8	2.2	2.19	4020.7	12.5	12.48	specific and strong activation
B3	42.6	0.8	0.82		10.0	2.3	2.25	263.6	0.8	0.82	
